Measurements reported in ChEMBL document CHEMBL4689842, “EUbOPEN Chemogenomics Library wave 1” (2021).

Columns and labels:
Assay type in all cases: toxicity, cell-based
Fibroblast = assay: Incucyte cell viability with human fibroblast; details: 10 µM, compound concentration 10 uM
HEK-293T = assay: Incucyte cell viability with HEK293T; details: human, 10 µM, compound concentration 10 uM
U2OS = assay: Incucyte cell viability with U2OS; details: human, 10 µM, compound concentration 10 uM
[1] = 6 h, replicate number 1, timepoint 6 hours
[2] = 12 h, replicate number 1, timepoint 12 hours
[3] = 12 h, replicate number 2, timepoint 12 hours
[4] = 18 h, replicate number 1, timepoint 18 hours
[5] = 24 h, replicate number 1, timepoint 24 hours
[6] = 0 h, replicate number 1, timepoint 0 hours
[7] = 6 h, replicate number 2, timepoint 6 hours
Also: filed as whole numbers so only -1 and 0 and 1 occur.

CC(C)c1ccc(CC(=O)N2CCC[C@@H](c3cccc(OC(C)(C)C(=O)O)c3)C2)cc1
Growth Rate (Fibroblast; [1]): 0 | Growth Rate (Fibroblast; [2]): 1 | Growth Rate (Fibroblast; [3]): 0 | Growth Rate (Fibroblast; [4]): 0 | Growth Rate (Fibroblast; [5]): 0 | Growth Rate (HEK-293T; [6]): 1 | Growth Rate (HEK-293T; 0 h, replicate number 2, timepoint 0 hours): 0 | Growth Rate (HEK-293T; [1]): 0 | Growth Rate (HEK-293T; [7]): 1 | Growth Rate (HEK-293T; [2]): 1 | Growth Rate (HEK-293T; [4]): 0 | Growth Rate (HEK-293T; [5]): 0 | Growth Rate (HEK-293T; 24 h, replicate number 2, timepoint 24 hours): 1 | Growth Rate (U2OS; [6]): 0 | Growth Rate (U2OS; [7]): 0 | Growth Rate (U2OS; [3]): 1 | Growth Rate (U2OS; [4]): 1 | Growth Rate (U2OS; [5]): 1
